Reference: patent US20100196462A1, “Method for Manufacturing a Pharmaceutical Form of Oseltamivir Phosphate” (priority 2006, published 2010)

Experiment: Density of the oseltamivir phosphate active ingredient before densification (pharmacotechnical tests)
Format: physicochemical
Details: active ingredient as received, without densification

density: approximately 0.1 g/cm^3
SMILES: CCOC(=O)C1=C[C@@H](OC(CC)CC)[C@H](NC(C)=O)[C@@H](N)C1 [oseltamivir phosphate]
